Tests used:
[1] = system: patients with Type 2 Diabetes mellitus and obesity; assay: Open label Phase 2 study IMB101-005 DICE: spontaneously reported renal and urinary findings; type: in vivo, human; conditions: 200 mg MR BID for 8 weeks (N=22)
Experimental: (§1) In the early Phase 1 study in healthy volunteers and early Phase 2 studies in patients, there were instances of increased urine volume and increased urinary frequency spontaneously reported. • In the first-in-man study, CIMB8972-101, healthy volunteers were dosed with single doses of IMB-1018972 at 50 mg or 200 mg of the modified release (MR) formulation. Two of 12 subjects [2/12] (16.7%) reported 5 events of pollakiuria at both doses. • In an open label Phase 2 study (IMB101-005 DICE) treating patients with Type 2 Diabetes mellitus and obesity for 8 weeks with 200 mg MR BID, two of 22 patients [2/22] (9.1%) spontaneously reported renal and urinary findings. One patient reported pollakiuria and one patient reported increased nocturnal urinary frequency. • In a blinded, randomized, controlled, Phase 2 study (IMB101-006 […]) treating patients with stable angina for 8 weeks with 200 mg MR BID, one of 22 patients [1/22] (4.5%) spontaneously reported renal and urinary findings. One patient reported polyuria.

healthy subjects [2] = assay: FIH study, multiple-dose MR part: safety and tolerability; type: in vivo, human
Experimental: (§2) AEs were recorded from (first) admission until completion of the follow-up visit. Any clinically significant observations in results of clinical laboratory, 12-lead ECGs, vital signs, or physical examinations were recorded as AEs.
(§3) A treatment-emergent AE (TEAE) was defined as any event not present prior to (the first) administration of the study drug or any event already present that worsened in either severity or frequency following exposure to the study drug.
(§4) At several time points before and after drug administration, subjects were asked nonleading questions to determine the occurrence of AEs. Subjects were asked in general terms about any AEs at regular intervals during the study. In addition, all AEs reported spontaneously during the course of the study were recorded. Details included description of the event, date and time of onset, date and time of end, total duration, severity, relationship to study drug, intervention, seriousness, and outcome. All answers were interpreted by the Investigator and were recorded in the eCRF. All AEs were classified according to the Medical Dictionary for Regulatory Activities (MedDRA; Version 22.0) for AEs.
(§5) The severity of the AEs was rated as mild, moderate, or severe; the relationship between the AEs and the study drug was indicated as none, unlikely, possibly, likely, or definitely. Adverse events assessed as possibly, likely, or definitely were considered related to the study drug; AEs assessed as none or unlikely were considered not related to the study drug.

healthy subjects [3] = assay: FIH study, whole study: safety and tolerability
Experimental: The study started with the SAD part.
as §2, §3, §4, §5
(§6) The following parameters were measured: • Clinical chemistry (serum quantitatively): total bilirubin, alkaline phosphatase, gamma glutamyl transferase, aspartate aminotransferase (AST), alanine aminotransferase (ALT), lactate dehydrogenase, creatinine, urea, total protein, glucose, inorganic phosphate, sodium, potassium, • calcium, and chloride • Hematology (blood quantitatively): leukocytes, erythrocytes, hemoglobin, hematocrit, thrombocytes, partial automated differentiation (lymphocytes, monocytes, eosinophils, basophils, and neutrophils), mean corpuscular volume, mean corpuscular hemoglobin, and mean corpuscular hemoglobin concentration • Coagulation (blood quantitatively): prothrombin time (reported in seconds and as international normalized ratio), activated partial thromboplastin time, and fibrinogen • Urinalysis (urine qualitatively): hemoglobin, urobilinogen, ketones, glucose, and protein • Serology: HBsAg, anti-HCV, and anti-HIV 1 and 2 • Drug and alcohol screen: opiates, methadone, cocaine, amphetamines (including ecstasy), cannabinoids, barbiturates, benzodiazepines, tricyclic antidepressants, and alcohol • Pregnancy test (females only): (3-human chorionic gonadotropin in serum
(§7) Systolic and diastolic blood pressure and pulse were recorded after the subject had been resting for at least 5 minutes in the supine position. These assessments were made using an automated device. Body temperature and respiratory rate were measured subsequently.
(§8) The ECG was recorded using an ECG machine equipped with computer-based interval measurements (with no/minimal disturbance by procedures). The following ECG parameters were recorded: heart rate, PR-interval, QRS-duration, QT-interval, QTcF-interval, and the interpretation of the ECG profile by the Investigator.
Safety and tolerability were assessed through AEs, clinical laboratory, vital signs, ECGs, continuous cardiac monitoring (telemetry), and physical examination findings, and any other parameter that was relevant for safety assessment.

dog = assay: 28-day dog study (nonclinical toxicology: NOAEL and exposure); conditions: in vivo
Experimental: Based on the nonclinical toxicology data, it was considered that subjects in this clinical study were not at unreasonable risk of adverse effects. […] For a 60-kg individual, the NOAEL dose would be 6480 mg. With a 10-fold safety factor applied, this would allow for a maximum recommended starting dose (MRSD) of 648 mg/day.7,8 The planned starting dose in the current Phase 1 study was 50 mg, equivalent to 0.83 mg/kg/day for a 60-kg subject. This starting dose is less than 10% of the MRSD determined from the dog NOAEL and less than 1% of the dog NOAEL
The relevant animal study was the 28-day dog study where the NOAEL for IMB-1018972 was 200 mg/kg/day.

healthy subjects [4] = assay: FIH study, SAD part (and integrated FE arm): safety and tolerability
Experimental: In Groups A1, A2, A3, and A4, subjects received a single oral dose of an IR formulation of IMB-1018972 or placebo under fasted conditions (an overnight fast of at least 10 hours). […] Each subject participated in only 1 group during the study.
as §2, §3, §4, §5, §6, §7, §8
In the SAD part (not in the second period of the FE group A4, and not in Group A5), a 12-lead ECG was recorded continuously by telemetry from 2 hours before to 24 hours after drug administration on Day 1.

healthy subjects [5] = assay: FIH study, MAD part: safety and tolerability; type: in vivo, human
Experimental: Subjects received multiple oral doses of an IR formulation of IMB-1018972 or placebo once every 12 hours (q12h) for 14 consecutive days. Each subject participated in only 1 group during the study.
The doses were selected based upon the safety, tolerability, and PK data from the SAD part: • Group B1 multiple oral doses of an IR formulation of 150 mg IMB-1018972 (n=9) or matching placebo (n=3) twice daily (q12h) for 14 days; on Day 14 only a single morning dose was administered • Group B2: multiple oral doses of an IR formulation of 50 mg IMB-1018972 (n=9) or matching placebo (n=3) q12h for 14 days; on Day 14 only a single morning dose was administered
as §2, §3, §4, §5
In the MAD part, a 12-lead ECG was recorded continuously by telemetry from 2 hours before to 12 hours after drug administration on Day 1, and from 2 hours before to 24 hours after drug administration on Day 14.

[6] = system: patients with stable angina; assay: Blinded, randomized, controlled Phase 2 study IMB101-006 […]: spontaneously reported renal and urinary findings; type: in vivo, human; conditions: 200 mg MR BID for 8 weeks, blinded (N=22)
Experimental: as §1

[7] = 150 mg IMB-1018972 fasted (fasted-fed group)
[8] = 150 mg IMB-1018972 fed (fasted-fed group)
[9] = SAD part, all IMB-1018972 doses (N=24)
[10] = MAD part, all IMB-1018972 doses (N=18)

## COc1ccc(CN2CCN(CCOC(=O)c3cccnc3)CC2)c(OC)c1OC [IMB-1018972, 2-[4-[(2,3,4-trimethoxyphenyl)methyl]piperazin-1-yl]ethyl pyridine-3-carboxylate]
[1]
  Patients reporting increased nocturnal urinary frequency: one
  Patients reporting pollakiuria: One
  Patients spontaneously reporting renal and urinary findings: 9.1%
Healthy subjects [2]; 200 mg 8-hour MR q12h, fed
  Severity of flushing (2 subjects): mild
Healthy subjects [2]; multiple-dose MR part
  Severity of all TEAEs: mild
Healthy subjects [2]; multiple-dose MR part (N=12)
  Number of TEAEs: 40
  Number of TEAEs considered not related to the study drug: 30
  Number of TEAEs considered related to the study drug: 10
  Number of TEAEs, SOC gastrointestinal disorders: 9
  Number of TEAEs, SOC general disorders and administration site conditions: 4
  Number of TEAEs, SOC musculoskeletal and connective tissue disorders: 4
  Number of TEAEs, SOC nervous system disorders: 9
  Number of TEAEs, SOC renal and urinary disorders (pollakiuria): 4
  Number of drug-related TEAEs of flushing: 2
  Number of drug-related TEAEs of pollakiuria: 4
  Number of drug-related TEAEs, nervous system disorders: 2
  Subjects reporting TEAEs: 100%
  Subjects reporting TEAEs considered not related to the study drug: 75%
  Subjects reporting TEAEs considered related to the study drug: 58.3%
  Subjects reporting TEAEs, SOC gastrointestinal disorders: 41.7%
  Subjects reporting TEAEs, SOC general disorders and administration site conditions: 33.3%
  Subjects reporting TEAEs, SOC musculoskeletal and connective tissue disorders: 33.3%
  Subjects reporting TEAEs, SOC nervous system disorders: 58.3%
  Subjects reporting TEAEs, SOC renal and urinary disorders (pollakiuria): 33.3%
  Subjects reporting drug-related TEAEs of flushing: 16.7%
  Subjects reporting drug-related TEAEs of pollakiuria: 33.3%
  Subjects reporting drug-related TEAEs, nervous system disorders: 16.7%
Healthy subjects [3]; 1 SAE influenza like illness, 1 TEAE ALT increased
  Subjects withdrawn from the study due to adverse events: Two
Healthy subjects [3]; IR or MR formulations
  Hemodynamic changes and QTc-interval: no findings of hemodynamic changes, nor changes in the QTc-interval
Healthy subjects [3]; overall
  Dose dependency of number and incidence of TEAEs: no clear dose dependency
Healthy subjects [3]; single and multiple oral doses, IR and MR formulations
  Overall tolerability: generally well tolerated
Healthy subjects [3]; whole study
  Clinical laboratory, vital signs, 12-lead ECG, continuous cardiac monitoring (telemetry), physical examination: no findings of clinical relevance
  Deaths: no deaths
  Severe TEAEs: no severe TEAEs
Healthy subjects [3]; whole study, all treatments
  Number of TEAEs of moderate severity: 12
  Total number of TEAEs: 181
dog
  NOAEL dose for a 60-kg individual (HED): 6480 mg
dog; 28 days
  Maximum recommended starting dose (MRSD), 10-fold safety factor: 648 mg/day
Healthy subjects [4]; 50 mg IMB-1018972 fasted
  Number of TEAEs: 3
  Subjects reporting TEAEs: 50.0%
Healthy subjects [4]; 150 mg IMB-1018972 fasted
  Number of TEAEs: 5
  Subjects reporting TEAEs: 50.0%
Healthy subjects [4]; [7]
  Number of TEAEs: 17
  Subjects reporting TEAEs: 66.7%
Healthy subjects [4]; [8]
  Number of TEAEs: 4
  Subjects reporting TEAEs: 20%
Healthy subjects [4]; 400 mg IMB-1018972 fasted
  Number of TEAEs: 16
  Subjects reporting TEAEs: 100%
Healthy subjects [4]; FE arm of the SAD part, 150 mg
  Effect of dosing under fed conditions on number and incidence of TEAEs: appeared to attenuate
Healthy subjects [4]; SAD part
  Severe TEAEs: No severe TEAEs
Healthy subjects [4]; SAD part, IMB-1018972
  Number of TEAEs of flushing: 6
  Number of TEAEs of flushing of mild severity: 1
  Number of TEAEs of flushing of moderate severity: 5
Healthy subjects [4]; SAD part, IMB-1018972 (N=24)
  Number of TEAEs considered related to the study drug: 21
  Number of TEAEs, SOC gastrointestinal disorders: 9
  Number of TEAEs, SOC general disorders and administration site conditions: 9
  Number of TEAEs, SOC nervous system disorders: 9
  Number of TEAEs, SOC skin and subcutaneous tissue disorders: 4
  Number of TEAEs, SOC vascular disorders: 7
  Number of drug-related TEAEs, nervous system disorders: 5
  Number of drug-related TEAEs, vascular disorders (flushing): 6
  Subjects reporting TEAEs considered related to the study drug: 29.2%
  Subjects reporting TEAEs, SOC gastrointestinal disorders: 16.7%
  Subjects reporting TEAEs, SOC general disorders and administration site conditions: 20.8%
  Subjects reporting TEAEs, SOC nervous system disorders: 29.2%
  Subjects reporting TEAEs, SOC skin and subcutaneous tissue disorders: 16.7%
  Subjects reporting TEAEs, SOC vascular disorders: 29.2%
  Subjects reporting drug-related TEAEs, nervous system disorders: 16.7%
  Subjects reporting drug-related TEAEs, vascular disorders (flushing): 25%
Healthy subjects [4]; [9]
  Number of TEAEs: 45
  Subjects reporting TEAEs: 66.7%
Healthy subjects [4]; SAD part, of 48 TEAEs with IMB-1018972 or placebo
  Number of TEAEs of moderate severity: 11
Healthy subjects [4]; following 50 mg and 150 mg (fasted only group) IMB-1018972
  Drug-related TEAEs: No drug-related TEAEs
Healthy subjects [4]; single 150 mg IMB-1018972, fasted, FE arm
  Subjects who reported flushing: 2 subjects
Healthy subjects [4]; single 400 mg IMB-1018972, fasted
  Subjects who reported flushing: Four
Healthy subjects [4]; single oral IMB-1018972 50, 150, 400 mg fasted and 150 mg fed
  Tolerability: well tolerated
Healthy subjects [5]; 50 mg IMB-1018972 q12h
  TEAEs of flushing: No TEAEs of flushing
Healthy subjects [5]; 50 mg IMB-1018972 q12h fed
  Number of TEAEs: 21
  Subjects reporting TEAEs: 77.8%
Healthy subjects [5]; 150 mg IMB-1018972 q12h
  Number of TEAEs of flushing (incidental, mild): 7
  Subjects with TEAEs of flushing: 6 subjects
Healthy subjects [5]; 150 mg IMB-1018972 q12h fed
  Number of TEAEs: 14
  Subjects reporting TEAEs: 77.8%
Healthy subjects [5]; 14-day oral q12h 50 mg and 150 mg IMB-1018972, fed
  Tolerability: well tolerated
Healthy subjects [5]; MAD part
  Severity of all TEAEs: mild
Healthy subjects [5]; MAD part, IMB-1018972 (N=18)
  Number of TEAEs considered not related to the study drug: 28
  Number of TEAEs, SOC general disorders and administration site conditions: 7
  Number of TEAEs, SOC musculoskeletal and connective tissue disorders: 7
  Number of TEAEs, SOC vascular disorders (flushing): 7
  Subjects reporting TEAEs considered not related to the study drug: 61.1%
  Subjects reporting TEAEs considered related to the study drug: 33.3%
  Subjects reporting TEAEs, SOC general disorders and administration site conditions: 27.8%
  Subjects reporting TEAEs, SOC musculoskeletal and connective tissue disorders: 27.8%
  Subjects reporting TEAEs, SOC vascular disorders (flushing): 33.3%
Healthy subjects [5]; MAD part, IMB-1018972 (N=18), all flushing at 150 mg q12h
  Number of TEAEs considered related to the study drug: 7
Healthy subjects [5]; [10]
  Number of TEAEs: 35
  Subjects reporting TEAEs: 77.8%
[6]
  Patients reporting polyuria: One
  Patients spontaneously reporting renal and urinary findings: 4.5%
